# Legend:
# TFEB = TFEB activation screen, % activation/control at 24 and 48 hrs (Table 1); format: cell-based, human
# Method: FIG. 25, panels A-B::AIC106 identified as a lead compound in a TFEB-transcription based screen. Panel A) Rat Neuronal N27 cells were transfected with a vector construct driving expression of secreted-Gaussia luciferase (Sec-Gaussia) in control of 2 kb human TFEB promoter. Next day, cells were seeded into 96-well cell culture plate and exposed to compounds (30 μM) from natural product library (NPL-640) or DMSO-control. After 24 and 48 hours of compound treatment supernatant from the cells was collected and TFEB promoter activity determined by quantifying luciferase activity. Panel B) Effects of AIC106 treatment on HLH-30 expression after 24 hours treatment were determined by immunoblot against GFP in young adult stage of GFP-tagged HLH-30 strain (MAH235) following total protein extraction.
# It was discovered that small structural alterations in the C1 compound can have significant effects on the degree of TFEB activation (see, e.g., FIG. 17) the screening systems described herein identified a number of structures related to C1 that similarly induce TFEB.
# In vitro drug screening studies. […] We utilized for these studies a 3000 compound natural product derivative library (Timtec, Newark, DE) in […] transfected with a sensitive TFEB promotor-Gaussian luciferase construct. […] C1 is a coumarin-related compound, part of a family of natural benzopyrones found in many edible plants.
# To identify novel transcriptional inducers of TFEB, we transfected rat neuronal N27 cells with a vector driving expression of secreted-luciferase under control of the human TFEB promoter. […] AIC106 belongs to a family of coumarin compounds containing an active benzopyrone ring.
# DAF-12 = target: T1, DAF-12 (Caenorhabditis elegans, UniProt G5EFF5); test: Mammalian one-hybrid DAF-12 activity assay (HEK293T); format: cell-based, human
# T1 construct: expressed in transfected cells; host or cells: HEK293T
# T1 sequence (G5EFF5 516-753 limits assumed): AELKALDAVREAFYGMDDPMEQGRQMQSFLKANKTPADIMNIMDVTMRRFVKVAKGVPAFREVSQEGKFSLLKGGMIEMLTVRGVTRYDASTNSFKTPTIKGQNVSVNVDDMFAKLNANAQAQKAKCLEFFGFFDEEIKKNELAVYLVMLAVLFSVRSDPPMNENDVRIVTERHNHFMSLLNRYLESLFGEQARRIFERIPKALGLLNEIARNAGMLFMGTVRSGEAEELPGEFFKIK
# Method: FIG. 10 illustrates that coumarin 106 (“C1”, “AIC106”) inhibits induction of the worm FXR homologue DAF-12. The ability of C1 (10 μM) to inhibit activation of the FXR worm homologue DAF-12 by its ligand dafachronic acid (Df acid); values are fold activity induction versus untreated controls; ****p<0.01 versus GW; **p<0.05 versus GW.
# FIG. 22, panels A-H: AIC106-induced HLH-30 expression is mediated by the nuclear hormone receptor DAF-12. Panel A) The upstream promoter region (2 kB) of hlh-30 was analyzed by JASPAR CORE database to determine DAF-12 binding sites (1: SEQ ID NO:1, 2: 1: SEQ ID NO:2, 3: SEQ ID NO:3, 4: SEQ ID NO:4, 5: SEQ ID NO:5, 6: SEQ ID NO:6, 7: SEQ ID NO:7, 8: SEQ ID NO:8, 9: SEQ ID NO:9, 10: SEQ ID NO:10, 11: SEQ ID NO:11, 12: SEQ ID NO:12). Panel B) Relative fold change in mRNA of hlh-30 compared to DMSO-control was quantified using qRT-PCR in young adult wild-type N2 and daf-12(rh61rh411) worms post-24 hours treatment with AIC106. [N=3 independent experiments (mean±SD). **p<0.01, by one-way ANOVA with Sidak's multiple comparisons test]. Panel C) Effects of AIC106 on DAF-12 activity was determined in a mammalian one-hybrid assay by quantifying changes in the luciferase activity of DAF-12 ligand (dafachronic acid, DA) induced treatment. [N=3 independent experiments (mean±SD). *p<0.05 **p<0.01 and ***p<0.001, by one-way ANOVA with Tukey's multiple comparisons test]. Panel D) Schematic diagram showing that addition of AIC106 or inhibition of DAF-12 ligand synthesis, which leads to un-liganded DAF-12 may result in enhanced HLH-30 expression. Panel E) Dafadine-A (DFA), a specific inhibitor of key enzyme required for synthesis of DAF-12 ligand induces HLH-30 expression. Immunoblot for GFP was performed on protein lysate of HLH-30; GFP (MAH235) young adult worms treated with DFA or DMSO-control for 24 hours. Panel F) Protection against mitochondrial toxin (FCCP) was determined by quantifying survival of young adult worms treated 24 hours with DFA or DMSO-control. [N=3 independent experiments (mean±SD). **p<0.01, by two-way ANOVA with Tukey's multiple comparisons test]. Panel G) Motor function in day-7 NL5901 worms were quantified by scoring number of thrashes for an individual worm over the period of 30 seconds (dots) in DFA and DMSO-control treatment. [N=3 independent experiments (mean±SD). **p<0.01, by unpaired t-test] […] [N=3 independent experiments (mean±SD). *p<0.05, by one-way ANOVA with Tukey's multiple comparisons test].
# FIG. 29, panels A-C: AIC106 modulates DAF-12 activity. […] Luciferase activity was measured to quantify DAF-12 activity. Panel C) Dose dependent increase in DAF-12 activity after treatment with known DAF-12 ligand, dafachronic acid (DA) was determined by quantifying luciferase activity. […]
smiles,measurement,setting,value
"O=c1oc2c3c4c(cc2c2c1CCC2)CCCN4CCC3 [C1, 2,3,6,7,10,11-Hexahydro-1H,5H-cyclopenta(3,4)(1)benzopyrano(6,7,8-ij)quinolizin-12(9H)-one]",% activation/Control 24 hrs,TFEB; 24 hrs,350.83%
same,% activation/Control 48 hrs,TFEB; 48 hrs,413.96%
same,activation of DAF-12 elicited by dafachronic acid,DAF-12; C1 10 μM (FIG. 10),inhibit activation of the FXR homologue DAF-12
same,DAF-12 activity (luciferase),DAF-12; compound alone,did not increase DAF-12 activity
same,DA-induced DAF-12 activity,DAF-12; in combination with dafachronic acid,dose-dependent suppression of DA-induced DAF-12 activity

# — US12673039B2, “Methods of inducing autophagy using coumarin derivatives and related compounds” (Buck Institute for Research on Aging, priority 2019, dated 2026)
